Test results taken from patent US9643964B2, “3-(2-aminopyrimidin-4-yl)-5-(3-hydroxypropynyl)-1H-pyrrolo[2,3-C]pyridine derivatives as NIK inhibitors for the treatment of cancer” (Janssen Pharmaceutica NV, priority 2013, dated 2017).

Assays:
[1] = target: T1, Recombinant Human NF-kappaB-Inducing Kinase (NIK/MAP3K14) (Homo sapiens, UniProt Q99558); assay: Biological Assay A: inhibition of recombinant human NIK/MAP3K14 activity (MBP phosphorylation, Mesoscale); assay type: biochemical; conditions: averaged over all measurements on all batches; read-out: Biochemical (MSD MBP) IC50
How it was run: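 10 nM NIK with 25 μM ATP on MBP-coated plates in Tris pH 7.5 buffer with MgCl2, DTT and Na3VO4 and 1% DMSO, for 1 h at 25° C. Phospho-MBP was detected by anti-phospho-MBP and Sulfotag electrochemiluminescence; after blank subtraction, IC50 came from a sigmoidal fit of % inhibition.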

[2] = target: T1, Recombinant Human NF-kappaB-Inducing Kinase (NIK/MAP3K14); assay: Biological Assay A2: inhibition of auto-phosphorylation of recombinant human NIK/MAP3K14 (AlphaScreen); assay type: biochemical; conditions: auto-phosphorylation; averaged over all measurements on all batches; read-out: αscreen IC50
How it was run: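 AlphaScreen readout of anti-phospho-IKK Ser176/180 signal after 1 h, 25° C. incubation of 0.2 nM GST-NIK with compound and 25 microM ATP (Tris pH 7.5 buffer, MgCl2, 1% DMSO final). IC50 from sigmoidal fit of blank-corrected % inhibition against Log10 concentration.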

[3] = test system: P-IKKα levels in L363 cells; assay: Biological Assay B: effect of compounds on P-IKKα levels in L363 cells; assay type: cell-based; conditions: Homo sapiens, L-363, averaged values, read-out: IKKα Cellular IC50
Description: Effect of Compounds on P-IKKα Levels in L363 Cells
All compounds tested were dissolved in DMSO and further dilutions were made in culture medium. Final DMSO concentration was 1% (v/v) in cell assays. The human L363 cells (ATCC) were cultured in RPMI 1640 medium supplemented with GlutaMax and 10% fetal calf serum (PAA). Cells were routinely maintained at densities of 0.2×10^6 cells per ml-1×10^6 cells per ml at 37° C. in a humidified 5% CO2 atmosphere. Cells were passaged twice a week splitting back to obtain the low density. Cells were seeded in 96 well plates (Nunc 167008) at 2×10^6 per ml media in a volume of 75 μl per well plus 25 μl 1 μg/ml recombinant human B-cell activating factor BAFF/B1YS/TNFSF13B. Seeded cells were incubated at 37° C. in a humidified 5% CO2 atmosphere for 24 hr. Drugs and/or solvents were added (20 μl) to a final volume of 120 μl. Following 2 hr treatment plates were removed from the incubator and cell lysis was achieved by the addition of 30 μl 5× lysis buffer followed by shaking on a plate shaker at 4° C. for 10 min. At the end of this incubation lysed cells were centrifuged at 800×g for 20 min at 4° C. and the lysate was assessed for P-IKKα levels by sandwich immuno-assay carried out in anti-rabbit antibody coated Mesoscale plates. Within an experiment, the results for each treatment were the mean of 2 replicate wells. For initial screening purposes, compounds were tested using an 8 point dilution curve (serial 1:3 dilutions). For each experiment, controls (containing MG132 and BAFF but no test drug) and a blank incubation (containing MG132 and BAFF and 10 μM ADS125117, a test concentration known to give full inhibition) were run in parallel. The blank incubation value was subtracted from all control and sample values. To determine the IC50 a sigmoidal curve was fitted to the plot of % inhibition of control P-IKKα levels versus Log10 compound concentration.

LP-1 cells = assay: Biological Assay C: antiproliferative activity on LP-1 cells (CellTiter-Glo); assay type: cell-based, human; conditions: Homo sapiens, LP-1, 72 h, 72 hr treatment; averaged values
How it was run: (§1)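 Luminescent ATP signal (CellTiter-Glo) measures growth of myeloma cells following a 72 h compound treatment. Values for the time-zero blank are subtracted, and each mean of duplicate wells is given as percentage of the no-drug control.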

L-363 cells = assay: Biological Assay C: antiproliferative activity on L-363 cells (CellTiter-Glo); assay type: cell-based, human; conditions: Homo sapiens, L-363, 72 h, 72 hr treatment; averaged values
How it was run: as §1

JJN-3 cells = assay: Biological Assay C: antiproliferative activity on JJN-3 cells (CellTiter-Glo); assay type: cell-based, human; conditions: Homo sapiens, JJN-3, 72 h, 72 hr treatment; averaged values
How it was run: as §1

T1 sequence (Q99558 whole entry): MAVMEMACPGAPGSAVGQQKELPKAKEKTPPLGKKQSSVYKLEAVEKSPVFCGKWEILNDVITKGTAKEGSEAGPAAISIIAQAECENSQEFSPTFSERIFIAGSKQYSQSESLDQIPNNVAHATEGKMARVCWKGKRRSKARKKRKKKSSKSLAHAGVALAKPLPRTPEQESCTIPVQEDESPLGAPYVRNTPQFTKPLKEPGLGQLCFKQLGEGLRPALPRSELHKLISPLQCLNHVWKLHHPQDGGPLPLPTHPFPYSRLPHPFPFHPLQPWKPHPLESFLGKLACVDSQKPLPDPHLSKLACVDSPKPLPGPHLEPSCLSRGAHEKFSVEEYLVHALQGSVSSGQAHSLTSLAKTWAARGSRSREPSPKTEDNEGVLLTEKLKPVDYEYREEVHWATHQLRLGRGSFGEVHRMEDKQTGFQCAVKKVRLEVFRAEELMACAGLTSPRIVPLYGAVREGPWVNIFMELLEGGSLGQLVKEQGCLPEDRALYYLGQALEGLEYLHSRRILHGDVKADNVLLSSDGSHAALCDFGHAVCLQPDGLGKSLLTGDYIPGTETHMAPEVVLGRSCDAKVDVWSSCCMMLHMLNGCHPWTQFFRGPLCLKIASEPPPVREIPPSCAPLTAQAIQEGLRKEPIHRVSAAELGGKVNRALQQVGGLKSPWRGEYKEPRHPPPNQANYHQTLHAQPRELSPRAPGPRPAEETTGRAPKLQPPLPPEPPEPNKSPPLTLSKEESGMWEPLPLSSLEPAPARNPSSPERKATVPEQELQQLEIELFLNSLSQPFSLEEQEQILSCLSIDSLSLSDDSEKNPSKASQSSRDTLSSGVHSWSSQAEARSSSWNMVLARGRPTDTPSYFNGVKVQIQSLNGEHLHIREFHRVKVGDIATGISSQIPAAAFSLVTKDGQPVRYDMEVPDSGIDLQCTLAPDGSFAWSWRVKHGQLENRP

| IC50 [1] | IC50 [2] | IC50 [3] | SMILES | EC50 (LP-1 cells) | EC50 (L-363 cells) | EC50 (JJN-3 cells) |
| --- | --- | --- | --- | --- | --- | --- |
| 0.9 nM | 0.4 nM | 11 nM | CC(C)(O)C#Cc1cc2c(-c3nc(N)ncc3Cl)c[nH]c2cn1 [Compound 14] | 390 nM | 75 nM | 75 nM |
| 17 nM | 49 nM | 84 nM | CC(C)(O)C#Cc1cc2c(-c3ccnc(N)n3)cn(CC3COC3)c2cn1 [Compound 28] | 5800 nM | 810 nM | 1200 nM |
| 18 nM | 3 nM | 13 nM | CC(C)(O)Cn1cc(-c2nc(N)ncc2Cl)c2cc(C#CC3(O)CC3)ncc21 [Compound 21] | 2800 nM | 74 nM | 66 nM |
| 250 nM | 89 nM | 600 nM | COCCNC(=O)c1c(-c2ccnc(N)n2)c2cc(C#CC(C)(C)O)ncc2n1C [Compound 69] | 16000 nM | 870 nM | 1800 nM |
| 9.7 nM | 48 nM | 82 nM | COCCn1cc(-c2ccnc(N)n2)c2cc(C#CC(C)(C)O)ncc21 [Compound 2] | 1900 nM | 210 nM | 220 nM |
| 48 nM | 23 nM | 83 nM | CC(C)(O)C#Cc1cc2c(-c3ccnc(N)n3)cn(CCC(C)(C)O)c2cn1 [Compound 51] | > 10000 nM | 2400 nM | 990 nM |
| 4.2 nM | 16 nM | 53 nM | CC(C)(O)Cn1cc(-c2nc(N)ncc2Cl)c2cc(C#CC3(O)CCCC3)ncc21 [Compound 33] | 4100 nM | 1100 nM | 150 nM |
| 6.9 nM | 4 nM | 93 nM | CC(C)(O)C#Cc1cc2c(-c3ccnc(N)n3)c[nH]c2cn1 [Compound 1] | 3200 nM | 180 nM | 200 nM |
| 17 nM | 23 nM | 180 nM | CC(C)(O)C#Cc1cc2c(-c3ccnc(N)n3)cn(CCC#N)c2cn1 [Compound 57] | 31000 nM | 910 nM | 1300 nM |
| 49 nM | 19 nM | 120 nM | COCCn1cc(-c2ccnc(N)n2)c2cc(C#CC(C)(O)c3nccs3)ncc21 (stereo not drawn) [Compound 26] | 15000 nM | 11000 nM | 5600 nM |
| 140 nM | 110 nM | 6300 nM | CC(C)(O)Cn1cc(-c2ccnc(N)n2)c2cc(C#CC3(O)CCOC3)ncc21 (stereo not drawn) [Compound 29] | > 10000 nM | > 10000 nM | > 10000 nM |
| 240 nM | 740 nM | 1700 nM | CC(C)n1cc(-c2nc(N)ncc2CCCN)c2cc(C#CC(C)(C)O)ncc21 [Compound 118] | 3800 nM | 1600 nM | 330 nM |
| 5.2 nM | 29 nM | 20 nM | CC(C)(O)C#Cc1cc2c(-c3nc(N)ncc3F)cn(CC(C)(C)O)c2cn1 [Compound 64] | 2000 nM | 51 nM | 81 nM |
| 9.4 nM | 15 nM | 30 nM | COCCn1cc(-c2nc(N)ncc2Cl)c2cc(C#CC(C)(O)c3nccs3)ncc21 (stereo not drawn) [Compound 20] | 11000 nM | 5000 nM | 1000 nM |
| 9.2 nM | 29 nM | 100 nM | CC(O)C#Cc1cc2c(-c3ccnc(N)n3)cn(C(C)C)c2cn1 (stereo not drawn) [Compound 10] | 230 nM | 46 nM | 80 nM |
| 59 nM | 40 nM | 89 nM | COCCn1cc(-c2ccnc(N)n2)c2cc(C#CC(C)(O)C3CC3)ncc21 (stereo not drawn) [Compound 32] | 1500 nM | 740 nM | 460 nM |
| 29 nM | 38 nM | 280 nM | CCC(C)(O)C#Cc1cc2c(-c3ccnc(N)n3)cn(CC(C)(C)O)c2cn1 (stereo not drawn) [Compound 43] | > 10000 nM | 4100 nM | 650 nM |
| 20 nM | 9 nM | 75 nM | CC(C)(O)Cn1cc(-c2ccnc(N)n2)c2cc(C#CC3(O)CC3)ncc21 [Compound 22] | 1600 nM | 190 nM | 280 nM |
| 25 nM | 18 nM | 140 nM | CC(C)(O)C#Cc1cc2c(-c3ccnc(N)n3)cn(CC#N)c2cn1 [Compound 56] | 14000 nM | 840 nM | 840 nM |
| 100 nM | 14 nM | 3400 nM | CC(C)(O)C#Cc1cc2c(-c3ccnc(N)n3)cn(CCCN3CC(=O)NC3=O)c2cn1 [Compound 117] | > 10000 nM | 9000 nM | 3300 nM |
| 46 nM | 21 nM | 130 nM | CNc1nccc(-c2c[nH]c3cnc(C#CC(C)(C)O)cc23)n1 [Compound 4] | 5300 nM | 400 nM | 420 nM |
